This passage reports zone of inhibition, Activity and inhibition zone (IZ) results from ChEMBL document CHEMBL1157277, “Antifungal and antibacterial metabolites from a sclerotium-colonizing isolate of Mortierella vinacea” (1999).

For assay [1], the system named is Staphylococcus aureus. The experiment in a line: Antimicrobial activity against Staphylococcus aureus ATCC 14053 at 100 ug/disk by standard disk assay. Conditions: read-out: IZ. In kind it is functional.
Assay [2] deals with Bacillus subtilis. Description: Antimicrobial activity against Bacillus subtilis ATCC 6051 at 100 ug/disk by standard disk assay. It counts as functional. Conditions: read-out: IZ.
The subject of assay [3] is Fusarium verticillioides. Description: Antimicrobial activity against Fusarium verticillioides NRRL 25457 at 250 ug/disk by standard disk assay after 48 hrs. As to conditions: for zone of inhibition at 250 µg/disc: NRRL 25457, 48 h, read-out: IZ. In kind it is functional.
Assay [4] concerns Aspergillus flavus. Description: Antimicrobial activity against Aspergillus flavus NRRL 6541 at 250 ug/disk by standard disk assay. It counts as functional, organism-based.
Assay [5] relates to Candida albicans. Description: Antimicrobial activity against Candida albicans ATCC 10453 at 50 ug/disk by standard disk assay. In kind it is functional. Conditions: read-out: IZ.
The subject of assay [6] is Candida albicans. Description: Antimicrobial activity against Candida albicans ATCC 10453 at 100 ug/disk by standard disk assay. In kind it is functional. Conditions: read-out: IZ.
Assay [7] deals with Staphylococcus aureus. The experiment in a line: Antimicrobial activity against Staphylococcus aureus ATCC 14053 at 50 ug/disk by standard disk assay. In kind it is functional, organism-based.
Assay [8] relates to Bacillus subtilis. The experiment in a line: Antimicrobial activity against Bacillus subtilis ATCC 6051 at 50 ug/disk by standard disk assay. In kind it is functional, organism-based.
For assay [9], the system named is Fusarium verticillioides. The experiment in a line: Antimicrobial activity against Fusarium verticillioides NRRL 25457 at 100 ug/disk by standard disk assay after 48 hrs. It counts as functional, organism-based.

The source made the active and inactive calls. The rule behind the calls is not given here.

Take `COC(=O)c1c(C)c(C)c(O)c(C)c1O`: the zone of inhibition at 100 µg/disc in assay [1] and in [2] was 10 mm throughout. Further, the zone of inhibition at 250 µg/disc in assay [3] stood at 30 mm. The result in assay [4] was inactive.

On to `COC(=O)CNC(=O)c1c(C)c(C)c(O)c(C)c1O`, for which the result in assay [3] and in [4] was inactive.

Regarding `COC(=O)[C@H](C)NC(=O)c1c(C)c(C)c(O)c(C)c1O`, the outcome in assay [3] and in assay [4] was inactive.

In the case of `CCCCC[C@@H](O)[C@H]1C(=O)O[C@H](C)[C@@H](O)/C=C/C=C/C=C/C=C/C=C(\C)[C@@H](O)C[C@H](O)C[C@H](O)C[C@H](O)C[C@H](O)C[C@H](O)C[C@@H]1O` [FILIPIN], the zone of inhibition at 50 µg/disc in assay [5] was 15 mm.

With `CSC(=O)c1c(C)c(C)c(O)c(C)c1O` [MORTIVINACIN A], the zone of inhibition at 100 µg/disc in [6] stood at 15 mm. Also, the zone of inhibition at 250 µg/disc in [3] worked out at 30 mm. Also, in assay [4], the outcome was inactive.

`O=C(O)c1cccnc1` [NIACIN]: the zone of inhibition at 250 µg/disc in [3] worked out at 30 mm. The outcome in assay [4] was inactive.

For GENTAMICIN SULFATE, the inhibition zone (IZ) in assay [7] and in assay [8] was 24 mm throughout.

Regarding NYSTATIN, the inhibition zone (IZ) in assay [9] is 19 mm.
